Source: BigSolDB 2.1

Nc1nc(Cl)cc(Cl)n1
solubility (mole fraction)
Conditions | in 1,4-dioxane | in acetone | in acetonitrile | in cyclohexane | in ethanol | in ethyl acetate | in isopropanol | in methanol | in n-propanol | in toluene
278.15 K | – | 0.00538 | 0.00128 | – | 0.000929 | 0.00458 | 0.000517 | 0.00113 | 0.000792 | 0.000551
283.15 K | – | 0.00618 | 0.00155 | 4.26e-05 | 0.00111 | 0.00535 | 0.000645 | 0.00132 | 0.00095 | 0.000695
288.15 K | 0.0122 | 0.0073 | 0.00186 | 5.55e-05 | 0.00132 | 0.00631 | 0.000808 | 0.00158 | 0.00113 | 0.000856
293.15 K | 0.0139 | 0.00848 | 0.00223 | 7.15e-05 | 0.00158 | 0.0073 | 0.000989 | 0.00183 | 0.00136 | 0.00105
298.15 K | 0.016 | 0.0097 | 0.00265 | 9.05e-05 | 0.00183 | 0.00847 | 0.00121 | 0.00218 | 0.00163 | 0.00128
303.15 K | 0.0182 | 0.011 | 0.00314 | 0.000115 | 0.00215 | 0.00981 | 0.00148 | 0.00251 | 0.00192 | 0.00156
308.15 K | 0.0205 | 0.0126 | 0.0037 | 0.000144 | 0.00251 | 0.0113 | 0.00178 | 0.00293 | 0.00226 | 0.00188
313.15 K | 0.0233 | 0.0143 | 0.00434 | 0.000181 | 0.00293 | 0.0129 | 0.00215 | 0.00335 | 0.00265 | 0.00228
318.15 K | 0.0262 | 0.0163 | 0.00505 | 0.000224 | 0.00339 | 0.0147 | 0.00257 | 0.00389 | 0.00313 | 0.00274
